Values of other authors as cited in patent US11353469B2, “Nontoxic compounds for use as taggants in nutritional and pharmaceutical products” (Hall Labs, LLC, priority 2019, dated 2022).
Like-named read-outs stand apart in the source and are kept apart here.

Settings: for amount recoverable in urine: single dose of 1 g/kg body weight

Question: Which “time after administration at which DMSO has been detected in urine” value (applied topically) does the source give for `C[S+](C)[O-]` [DMSO, dimethylsulfoxide] here?
Answer: Its value is 2 h.

Question: What about the “time after administration at which compound could be detected in urine” value (orally administered) of the same molecule?
Answer: Its value is 30 min.

Question: And the “time of peak excretion in urine” value (orally administered)?
Answer: Its value is at most 4 h.

Question: What about the “amount recoverable in urine” value (administered orally) of the same molecule?
Answer: The value was 30-68%.

Question: What about the “amount recoverable in urine” value (applied topically) of the same molecule?
Answer: Its value is 13%.
